Data taken from ChEMBL document CHEMBL1201862, “PubChem BioAssay data set” (2004).
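In this assay, cells in 96-well plates receive the compound at five concentrations for 48 hours. Endpoints are linearly interpolated between the surrounding concentrations. At the GI50, growth is halved.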 The source made the active and inactive calls. Cut-off read from the data, not from the text of the source: active = GI50 up to about 1.1 µM and inactive = higher.

Legend:
Test in all cases: NCI tumour cell line growth inhibition, 48 h
TK-10 = tested on: TK-10
KM12 = tested on: KM12
PC-3 = tested on: PC-3
SF-295 = tested on: SF-295
HCT-116 = tested on: HCT-116
NCI-H23 = tested on: NCI-H23
IGROV-1 = tested on: IGROV-1
OVCAR-4 = tested on: OVCAR-4
SF-268 = tested on: SF-268
NCI-H226 = tested on: NCI-H226
HT-29 = tested on: HT-29
SK-MEL-2 = tested on: SK-MEL-2
M14 = tested on: M14
NCI-H522 = tested on: NCI-H522
UACC-62 = tested on: UACC-62
COLO 205 = tested on: COLO 205
NCI-H460 = tested on: NCI-H460
SF-539 = tested on: SF-539
SNB-75 = tested on: SNB-75
SN12C = tested on: SN12C

| Compound | GI50 (TK-10) | GI50 (KM12) | GI50 (PC-3) | GI50 (SF-295) | GI50 (HCT-116) | GI50 (NCI-H23) | GI50 (IGROV-1) | GI50 (OVCAR-4) | GI50 (SF-268) | GI50 (NCI-H226) | GI50 (HT-29) | GI50 (SK-MEL-2) | GI50 (M14) | GI50 (NCI-H522) | GI50 (UACC-62) | GI50 (COLO 205) | GI50 (NCI-H460) | GI50 (SF-539) | GI50 (SNB-75) | GI50 (SN12C) |
| --- | --- | --- | --- | --- | --- | --- | --- | --- | --- | --- | --- | --- | --- | --- | --- | --- | --- | --- | --- | --- |
| CCOC(=O)NCC(=O)NCC(=O)NCC(N)=O | > 100 µM (inactive) | > 100 µM (inactive) | > 100 µM (inactive) | > 100 µM (inactive) | > 100 µM (inactive) | > 100 µM (inactive) | > 100 µM (inactive) | > 100 µM (inactive) | > 100 µM (inactive) | > 100 µM (inactive) | > 100 µM (inactive) | > 100 µM (inactive) | > 100 µM (inactive) | > 100 µM (inactive) | > 100 µM (inactive) | > 100 µM (inactive) | – | – | – | – |
| O=C1/C(=C/c2ccccc2O)N=C(c2ccccc2)N1C1Nc2cc3c(cc2S1)NC(N1C(=O)/C(=C/c2ccccc2O)N=C1c1ccccc1)S3 (stereo unspecified) | 25.4 µM (inactive) | 41.3 µM (inactive) | 34.4 µM (inactive) | 42.1 µM (inactive) | 27.3 µM (inactive) | 31.9 µM (inactive) | 14.2 µM (inactive) | 60.5 µM (inactive) | 16.6 µM (inactive) | > 100 µM (inactive) | 42.3 µM (inactive) | 35.2 µM (inactive) | 38.3 µM (inactive) | 35.2 µM (inactive) | – | – | 12.5 µM (inactive) | 36.1 µM (inactive) | – | – |
| CC(C)C(CC(=O)OCC(CO)OC(=O)CC(C(C)C)C(C)C)C(C)C (stereo unspecified) | 13.3 µM (inactive) | 15.7 µM (inactive) | 14.4 µM (inactive) | 6.27 µM (inactive) | 16.2 µM (inactive) | 16.6 µM (inactive) | 19.1 µM (inactive) | 18 µM (inactive) | 14.3 µM (inactive) | 16.1 µM (inactive) | 17.4 µM (inactive) | 18.2 µM (inactive) | 14.1 µM (inactive) | 12.6 µM (inactive) | 15.8 µM (inactive) | 6.73 µM (inactive) | 11.8 µM (inactive) | – | 10.2 µM (inactive) | 12.9 µM (inactive) |
| CC(C)(CN1CCCCC1)C(/C=C/c1ccccc1)=N\NC(=O)N/N=C(/C=C/c1ccccc1)C(C)(C)CN1CCCCC1 | 1.75 µM (inactive) | 2 µM (inactive) | 1.97 µM (inactive) | 1.69 µM (inactive) | 1.58 µM (inactive) | 2.08 µM (inactive) | 2.51 µM (inactive) | 3.93 µM (inactive) | 3.24 µM (inactive) | 2.37 µM (inactive) | 1.07 µM (active) | 2.01 µM (inactive) | 1.71 µM (inactive) | 1.83 µM (inactive) | 1.54 µM (inactive) | 1.44 µM (inactive) | 1.38 µM (inactive) | – | 1.38 µM (inactive) | 1.89 µM (inactive) |
| COc1ccc(N(C(=O)Nc2ccc(Cl)c(Cl)c2)c2ccccc2)cc1 | > 10 µM (inactive) | > 10 µM (inactive) | > 10 µM (inactive) | > 10 µM (inactive) | > 10 µM (inactive) | > 10 µM (inactive) | > 10 µM (inactive) | > 10 µM (inactive) | > 10 µM (inactive) | > 10 µM (inactive) | > 10 µM (inactive) | – | > 10 µM (inactive) | > 10 µM (inactive) | > 10 µM (inactive) | > 10 µM (inactive) | > 10 µM (inactive) | > 10 µM (inactive) | – | > 10 µM (inactive) |
| CC1(CCCO)CCCCCC(C)(CCCO)C1=O (stereo unspecified) | – | > 100 µM (inactive) | > 100 µM (inactive) | > 100 µM (inactive) | > 100 µM (inactive) | > 100 µM (inactive) | > 100 µM (inactive) | > 100 µM (inactive) | > 100 µM (inactive) | > 100 µM (inactive) | > 100 µM (inactive) | > 100 µM (inactive) | > 100 µM (inactive) | > 100 µM (inactive) | > 100 µM (inactive) | > 100 µM (inactive) | > 100 µM (inactive) | – | 92.3 µM (inactive) | > 100 µM (inactive) |
